Patent US11202773B2, “Locally bioavailable drugs” (UNIVERSITY OF HOUSTON SYSTEM, priority 2015, dated 2021)
Like-named read-outs stand apart in the source and are kept apart here.

Columns and labels:
human COX-2 [1] = biological target: T1, human COX-2 (Homo sapiens, UniProt P35354); experiment: COX-2 activity (PGE2 production) in HCA-7 cells after A23187; type: cell-based; set-up: HCA-7 is a human colon cancer cell line in which COX-2 protein is constitutively expressed; endogenous in cells; host or cells: HCA-7; conditions: 30 min pre-incubation, 10 μM A23187, another 30 minutes
T1 sequence (P35354 18-604): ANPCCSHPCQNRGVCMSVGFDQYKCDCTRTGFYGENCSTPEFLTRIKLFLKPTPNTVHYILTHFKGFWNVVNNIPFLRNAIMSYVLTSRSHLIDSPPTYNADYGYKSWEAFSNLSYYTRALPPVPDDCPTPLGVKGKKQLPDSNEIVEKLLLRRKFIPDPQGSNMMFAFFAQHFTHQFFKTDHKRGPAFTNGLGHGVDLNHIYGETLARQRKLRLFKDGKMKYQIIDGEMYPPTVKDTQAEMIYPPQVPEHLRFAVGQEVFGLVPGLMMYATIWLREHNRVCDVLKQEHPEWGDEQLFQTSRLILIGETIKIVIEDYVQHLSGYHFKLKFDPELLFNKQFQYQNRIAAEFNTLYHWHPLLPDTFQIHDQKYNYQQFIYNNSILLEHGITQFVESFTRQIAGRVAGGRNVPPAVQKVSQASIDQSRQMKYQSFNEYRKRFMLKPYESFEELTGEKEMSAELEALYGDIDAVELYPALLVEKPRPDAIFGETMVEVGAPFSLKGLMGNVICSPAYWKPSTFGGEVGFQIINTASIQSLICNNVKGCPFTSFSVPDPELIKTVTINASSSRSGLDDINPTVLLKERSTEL
Procedure: (§1) First, the inhibitory effects of the new synthesized compounds on COX-2 were assayed in two cell lines: Raw264.7 cells and HCA-7 cells. Raw264.7 is a mouse macrophage cell line which expresses a high level of COX-2 protein upon lipopolysaccharide (LPS) induction. […] The concentration of prostaglandins (both PGD2 and PGE2) accumulated in the cell culture medium can be employed as an indicator of COX-2 activity. HCA-7 is a human colon cancer cell line in which COX-2 protein is constitutively expressed. Briefly, the cells were pre-incubated with different concentrations of the new compounds for 30 min, and then 10 μM A23187 (a calcium ionophore) was added to release membrane-bound arachidonic acid (the natural substrate of COX-2) to the cytosolic domain. The system was incubated for another 30 minutes and PGE2 concentrations in the culture medium were determined. In both cell lines, higher PGD2/PGE2 concentrations in the media meant more COX-2 activity.

mouse COX-2 = biological target: T2, mouse COX-2 (Mus musculus, UniProt Q05769); experiment: COX-2 activity (PGD2/PGE2 production) in LPS-induced Raw264.7 cells; type: cell-based; conditions: 0.1 μg/mL LPS, 14 hours co-incubation
T2 construct: Raw264.7 is a mouse macrophage cell line which expresses a high level of COX-2 protein upon lipopolysaccharide (LPS) induction; endogenous in cells; host or cells: Raw264.7 (LPS-induced)
T2 sequence (Q05769 18-604): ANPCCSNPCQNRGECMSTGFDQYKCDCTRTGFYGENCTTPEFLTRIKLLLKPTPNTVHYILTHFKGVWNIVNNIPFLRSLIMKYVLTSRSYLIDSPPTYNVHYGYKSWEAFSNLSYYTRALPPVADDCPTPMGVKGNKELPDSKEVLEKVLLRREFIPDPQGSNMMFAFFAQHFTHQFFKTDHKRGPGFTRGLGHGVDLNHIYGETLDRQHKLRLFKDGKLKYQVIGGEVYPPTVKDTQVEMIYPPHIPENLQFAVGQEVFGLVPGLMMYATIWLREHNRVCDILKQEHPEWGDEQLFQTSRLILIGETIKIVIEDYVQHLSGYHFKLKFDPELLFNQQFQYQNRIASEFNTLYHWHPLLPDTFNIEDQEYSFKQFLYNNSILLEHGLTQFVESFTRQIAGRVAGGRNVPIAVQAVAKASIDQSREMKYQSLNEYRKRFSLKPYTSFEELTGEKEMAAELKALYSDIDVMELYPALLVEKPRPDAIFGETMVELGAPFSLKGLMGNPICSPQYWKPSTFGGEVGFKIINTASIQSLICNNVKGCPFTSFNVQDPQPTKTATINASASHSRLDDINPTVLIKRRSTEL
Procedure: as §1

rat liver microsomes = experiment: Glucuronidation by rat liver microsomes; type: in vitro ADME
Procedure: (§2) FIG. 5A is a bar graph illustrating in vitro metabolism of phenolics via glucuronidation pathway. Glucuronidation rates of all the new locally bioavailable COX-2 inhibitors by rat liver microsomes. Additional metabolic rates of various locally bioavailable COX-2 inhibitors are in Table 3. […]. The incubation systems were: for glucuronidation, 0.88 mM magnesium chloride (MgCl2), 4.4 mM saccharolactone, 0.022 mg/mL alamethicin, 3.5 mM uridine 5′-diphospho-glucuronic acid (UDPGA), 10 μM substrates and different concentrations of microsomes in 50 mM potassium phosphate buffer (pH 7.4); for sulfation, 10 mM dithiothreitol (DTT), 5 mM MgCl2, 100 μM 3′-phosphoadenosine-5′-phosphosulfate (PAPS),10 μM substrate and different concentrations of S9 fractions in 50 mM potassium phosphate buffer (pH 7.4).
(§3) In vitro tools were employed to help predict the in vivo metabolism rates of the COX-2 inhibitors that are phenolics. The microsomes and S9 fractions prepared from colon or liver were used to determine the in vivo glucuronidation and sulfation rates of the phenolic compounds, respectively. By employing microsomes and S9 fractions prepared from both rats and humans, it could be determined if the results obtained in the rat model could be reasonably extrapolated to humans. In these experiments, raloxifene and genistein, two phenolic compounds which undergo extensive first-pass metabolism, were selected as controls.

recombinant human COX-1 = recombinant human COX-1 (Homo sapiens, UniProt P23219); experiment: In vitro enzyme assay, recombinant human COX-1; type: biochemical; conditions: read-out: IC50 against recombinant human COX-1
Chain of recombinant human COX-1 (P23219 24-599): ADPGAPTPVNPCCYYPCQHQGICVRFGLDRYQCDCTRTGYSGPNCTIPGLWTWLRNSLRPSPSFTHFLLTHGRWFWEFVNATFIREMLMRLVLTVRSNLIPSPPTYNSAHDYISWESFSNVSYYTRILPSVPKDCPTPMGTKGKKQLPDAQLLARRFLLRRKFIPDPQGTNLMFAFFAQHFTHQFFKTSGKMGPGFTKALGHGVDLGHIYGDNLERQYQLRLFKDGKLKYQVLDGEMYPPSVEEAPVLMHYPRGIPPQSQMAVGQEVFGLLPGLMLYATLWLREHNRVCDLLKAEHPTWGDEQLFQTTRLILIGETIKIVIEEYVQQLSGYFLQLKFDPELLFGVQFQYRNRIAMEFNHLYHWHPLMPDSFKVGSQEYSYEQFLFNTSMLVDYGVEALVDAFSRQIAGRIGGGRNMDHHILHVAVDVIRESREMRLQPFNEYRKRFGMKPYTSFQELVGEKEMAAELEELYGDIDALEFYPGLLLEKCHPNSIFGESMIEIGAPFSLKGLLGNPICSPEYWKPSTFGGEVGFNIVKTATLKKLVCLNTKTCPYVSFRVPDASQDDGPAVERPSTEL

rat colon microsomes = experiment: Glucuronidation by rat colon microsomes; type: in vitro ADME
Procedure: as §2, with “5B” for “5A”, “glucuronidation” for “metabolism”, “in liver and colon microsomes of rats.” for “via glucuronidation pathway.”, “6a1-6a4” for “all the new locally bioavailable COX-2 inhibitors”, “and colon microsomes were measured.” for “microsomes.”, “(PAPS), 10” for “(PAPS),10”
as §3

[2] = tested on: human intestine microsomes; experiment: Glucuronidation by human intestine microsomes; type: in vitro ADME
Procedure: as §2, with “FIG. 5D” for “FIG. 5A”, “of phenolics.” for “of phenolics via glucuronidation pathway.”, “of 6a1-6a4” for “of all the new locally bioavailable COX-2 inhibitors”, “by human” for “by rat”, “liver and intestinal” for “liver”, “Table 4.” for “Table 3.”
as §3

human COX-2 [3] = biological target: T1, human COX-2; experiment: In vitro enzyme assay, recombinant human COX-2 (PGE2 production); type: biochemical; conditions: read-out: IC50 against recombinant human COX-2
Source text: FIG. 3A is a bar graph illustration of PGE2 production by recombinant human COX-2 enzyme in the presence of the new compounds. Less PGE2 production means inhibition of COX-2 enzyme.
FIG. 3B is a bar graph illustration of PGE2 production by recombinant human COX-2 enzyme in the presence of the metabolites of the new compounds. Less PGE2 production means inhibition of COX-2 enzyme.

human liver microsomes = experiment: Glucuronidation by human liver microsomes; type: in vitro ADME
Procedure: as §2, with “FIG. 5D” for “FIG. 5A”, “of phenolics.” for “of phenolics via glucuronidation pathway.”, “of 6a1-6a4” for “of all the new locally bioavailable COX-2 inhibitors”, “by human” for “by rat”, “liver and intestinal” for “liver”, “Table 4.” for “Table 3.”
as §3

human Colon S9 [4] = experiment: Sulfation by human colon S9; type: in vitro ADME; conditions: substrate 10 μM
Procedure: as §2, with “FIG. 5D” for “FIG. 5A”, “of phenolics.” for “of phenolics via glucuronidation pathway.”, “of 6a1-6a4” for “of all the new locally bioavailable COX-2 inhibitors”, “by human” for “by rat”, “liver and intestinal” for “liver”, “Table 4.” for “Table 3.”
as §3

human Colon S9 [5] = experiment: Glucuronidation by human colon S9; type: in vitro ADME; conditions: substrate 10 μM
Procedure: as §2, with “FIG. 5D” for “FIG. 5A”, “of phenolics.” for “of phenolics via glucuronidation pathway.”, “of 6a1-6a4” for “of all the new locally bioavailable COX-2 inhibitors”, “by human” for “by rat”, “liver and intestinal” for “liver”, “Table 4.” for “Table 3.”
as §3, with “The microsomes and S9 fractions prepared from colon or liver were used to determine the in vivo glucuronidation and sulfation rates of the phenolic compounds, respectively.” left out

human liver S9 = experiment: Sulfation by human liver S9; type: in vitro ADME; conditions: substrate 10 μM
Procedure: as §2, with “FIG. 5D” for “FIG. 5A”, “of phenolics.” for “of phenolics via glucuronidation pathway.”, “of 6a1-6a4” for “of all the new locally bioavailable COX-2 inhibitors”, “by human” for “by rat”, “liver and intestinal” for “liver”, “Table 4.” for “Table 3.”
as §3

rat liver S9 = experiment: Sulfation by rat liver S9 fractions; type: in vitro ADME; conditions: substrate 10 μM
Procedure: as §2, with “FIG. 5C” for “FIG. 5A”, “via sulfonation” for “via glucuronidation”, “pathway. Sulfation” for “pathway. Glucuronidation”, “of 6a1-6a4” for “of all the new locally bioavailable COX-2 inhibitors”, “liver and colon S9 fractions.” for “liver microsomes.”, “μM 3′-phosphoadeno sine-5′-phosphosulfate” for “μM 3′-phosphoadenosine-5′-phosphosulfate”
as §3

rat colon S9 = experiment: Sulfation by rat colon S9 fractions; type: in vitro ADME; conditions: substrate 10 μM
Procedure: as §2, with “FIG. 5C” for “FIG. 5A”, “via sulfonation” for “via glucuronidation”, “pathway. Sulfation” for “pathway. Glucuronidation”, “of 6a1-6a4” for “of all the new locally bioavailable COX-2 inhibitors”, “liver and colon S9 fractions.” for “liver microsomes.”, “μM 3′-phosphoadeno sine-5′-phosphosulfate” for “μM 3′-phosphoadenosine-5′-phosphosulfate”
as §3

human intestine S9 = experiment: Sulfation by human intestine S9; type: in vitro ADME; conditions: substrate 10 μM
Procedure: as §2, with “FIG. 5D” for “FIG. 5A”, “of phenolics.” for “of phenolics via glucuronidation pathway.”, “of 6a1-6a4” for “of all the new locally bioavailable COX-2 inhibitors”, “by human” for “by rat”, “liver and intestinal” for “liver”, “Table 4.” for “Table 3.”
as §3

SMILES | IC50 (mouse COX-2) [µM] | Glucuronidation rates by liver microsomes (Mean) (rat liver microsomes) [pmol/mg/min] | IC50 (recombinant human COX-1) [nM] | IC50 (human COX-2 [3]) [nM] | also measured
CCOC(=O)c1cc(-c2ccc(C)cc2)n(-c2ccc(S(N)(=O)=O)cc2)n1 [Compound 3a] | 0.071 ± 0.021 | – | – | – | IC50 (human COX-2 [1]): 0.149 ± 0.026 µM
Cc1ccc(-c2cc(COc3ccc4c(=O)c(O)c(-c5ccccc5)oc4c3)nn2-c2ccc(S(N)(=O)=O)cc2)cc1 [Compound 6a4] | 0.303 ± 0.055 | 4763 | 16000 | 2590 | IC50 (human COX-2 [1]): 0.162 ± 0.065 µM; Glucuronidation by rat liver microsomes (FIG. 5A) (rat liver microsomes): rapidly glucuronidated; Glucuronidation rates by colon microsomes (Mean) (rat colon microsomes): 571 pmol/mg/min; Glucuronidation rates by intestine microsomes (Mean) [2]: 2134 pmol/mg/min; Glucuronidation rates by liver microsomes (Mean) (human liver microsomes): 291 pmol/mg/min
NS(=O)(=O)c1ccc(-n2nc(COc3ccccc3O)cc2-c2ccccc2)cc1 [Compound 6b1] | – | 7453 | 197000 | 54500 | –
NS(=O)(=O)c1ccc(-n2nc(COc3cccc(O)c3)cc2-c2ccccc2)cc1 [Compound 6b2] | 4.31 ± 0.629 | 4132 | 145000 | 207 | –
NS(=O)(=O)c1ccc(-n2nc(COc3ccc(O)cc3)cc2-c2ccccc2)cc1 [Compound 6b3] | 0.033 ± 0.004 | 656 | 28 | 2250 | –
COc1ccc(-c2cc(COc3ccccc3O)nn2-c2ccc(S(N)(=O)=O)cc2)cc1 [Compound 6c1] | – | 7026 | 19800 | 40.3 | –
COc1ccc(-c2cc(COc3cccc(O)c3)nn2-c2ccc(S(N)(=O)=O)cc2)cc1 [Compound 6c2] | 2.38 ± 0.502 | 3092 | 1100 | 353 | –
COc1ccc(-c2cc(COc3ccc(O)cc3)nn2-c2ccc(S(N)(=O)=O)cc2)cc1 [Compound 6c3] | 0.019 ± 0.002 | 934 | 12600 | 623 | –
Cc1ccc(-c2cc(COCc3ccccc3O)nn2-c2ccc(S(N)(=O)=O)cc2)cc1 [Compound 7a1] | – | 1050 | 4900 | 1.11 | Sulfation rates by human Colon S9 (Mean) (human Colon S9 [4]): 40 pmol/mg/min; Glucuronidation rates by colon microsomes (Mean) (rat colon microsomes): 160 pmol/mg/min; Glucuronidation rates by liver microsomes (Mean) (human liver microsomes): 2510 pmol/mg/min; Glucuronidation rates by human Colon S9 (Mean) (human Colon S9 [5]): 190 pmol/mg/min
COc1ccccc1COCc1cc(-c2ccc(C)cc2)n(-c2ccc(S(N)(=O)=O)cc2)n1 [Compound 7a3] | – | – | 19800 | 40.3 | –
O=c1c(-c2ccc(O)cc2)coc2cc(O)cc(O)c12 [Genistein, reference compound] | – | – | – | – | Sulfation rates by liver S9 (Mean) (human liver S9): 24 pmol/mg/min; Sulfation rates by liver S9 (Mean) (rat liver S9): 77 pmol/mg/min; Glucuronidation rates by liver microsomes (Mean) (rat liver microsomes; rat, substrate 10 μM): 2199 pmol/mg/min; Glucuronidation rates by colon microsomes (Mean) (rat colon microsomes; rat, substrate 10 μM): 142 pmol/mg/min; Glucuronidation rates by intestine microsomes (Mean) ([2]; human, substrate 10 μM): 4665 pmol/mg/min; Sulfation rates by colon S9 (Mean) (rat colon S9): 4 pmol/mg/min; Sulfation rates by human intestine S9 (Mean) (human intestine S9): 46 pmol/mg/min; Glucuronidation rates by liver microsomes (Mean) (human liver microsomes; human, substrate 10 μM): 965 pmol/mg/min
